Measurements published in patent US20250241891A1, “TREATMENT OF ANXIETY” (GH RESEARCH IRELAND LIMITED, priority 2022, published 2025).

Tested on: patients with treatment-resistant major depressive disorder (TRD)
Experiment: Phase 1/2 clinical trial of inhaled 5-MeO-DMT in TRD (MADRS, BPRS, safety)
Settings: for patients experiencing at least one ADR: n=4, all ADRs mild and resolved spontaneously
Description: Patients were assigned to different groups. In the context of the present invention, the group who received a single, 12 mg dose and the group who underwent an intra-day individualized dosing regimen (IDR) that allowed for multiple, escalating doses (6 mg, 12 mg and 18 mg) within a single day, driven by the intensity of the patient-reported psychedelic experience are of interest.
The data gathered include the assessment of the treated patients against several scales including the Montgomery-Åsberg Depression Rating Scale (MADRS) and the Brief Psychiatric Rating Scale (BPRS).
This trial was designed in two parts. Part A was an open-label, single-arm, single-dose Phase 1 trial with two dose levels (12 mg (n=4) and 18 mg (n=4)). […] The primary endpoint of Part B was to assess the effects on the severity of depression, as assessed by the proportion of patients in remission on day seven after dosing, defined as a MADRS total score of less than or equal to 10.

[1] = TRD, IDR 6/12/18 mg inhaled, sum n=8, 2 h after last dose, baseline 26
[2] = TRD, IDR 6/12/18 mg inhaled, sum n=8, 2 h after last dose, baseline 28
[3] = TRD, IDR 6/12/18 mg inhaled, sum n=8, 3 h after last dose, baseline 37
[4] = TRD, IDR 6/12/18 mg inhaled, sum n=8, day 1, baseline 25
[5] = TRD, IDR 6/12/18 mg inhaled, sum n=8, day 1, baseline 26
[6] = TRD, IDR 6/12/18 mg inhaled, sum n=8, day 1, baseline 37
[7] = TRD, IDR 6/12/18 mg inhaled, sum n=8, day 7, baseline 25
[8] = TRD, IDR 6/12/18 mg inhaled, sum n=8, day 7, baseline 26
[9] = TRD, IDR 6/12/18 mg inhaled, sum n=8, day 7, baseline 30
[10] = TRD, IDR 6/12/18 mg inhaled, sum n=8, day 7, baseline 37
[11] = TRD, single 12 mg inhaled, sum n=4, 2 h after dose, baseline 13
[12] = TRD, single 12 mg inhaled, sum n=4, 2 h after dose, baseline 16
[13] = TRD, single 12 mg inhaled, sum n=4, 3 h after dose, baseline 18
[14] = TRD, single 12 mg inhaled, sum n=4, 3 h after dose, baseline 25
[15] = TRD, single 12 mg inhaled, sum n=4, day 1, baseline 12
[16] = TRD, single 12 mg inhaled, sum n=4, day 1, baseline 13
[17] = TRD, single 12 mg inhaled, sum n=4, day 1, baseline 16
[18] = TRD, single 12 mg inhaled, sum n=4, day 1, baseline 25
[19] = TRD, single 12 mg inhaled, sum n=4, day 7, baseline 12
[20] = TRD, single 12 mg inhaled, sum n=4, day 7, baseline 13
[21] = TRD, single 12 mg inhaled, sum n=4, day 7, baseline 16
[22] = TRD, single 12 mg inhaled, sum n=4, day 7, baseline 25

COc1ccc2[nH]cc(CCN(C)C)c2c1 [5-MeO-DMT]
patients experiencing at least one ADR (Part A, single 12 mg inhaled): 3 of 4
SAEs (Part A, single 12 mg or 18 mg inhaled): No SAEs were reported
patients experiencing at least one ADR (Part A, single 18 mg inhaled): 3 of 4
SAEs (Part B, IDR 6/12/18 mg inhaled, n=8): No SAEs were reported
MADRS Suicidal Thoughts score (TRD, IDR 6/12/18 mg inhaled, sum n=8, 2 h after last dose, baseline 11): 3
MADRS Inner Tension percentage improvement [1]: 58%
MADRS Inner Tension score [1]: 11
MADRS Lassitude score (TRD, IDR 6/12/18 mg inhaled, sum n=8, 2 h after last dose, baseline 27): 10
MADRS Pessimistic Thoughts percentage improvement [2]: 75.00%
MADRS Pessimistic Thoughts score [2]: 7
MADRS Concentration Difficulties score (TRD, IDR 6/12/18 mg inhaled, sum n=8, 2 h after last dose, baseline 30): 11
MADRS Inability to Feel score (TRD, IDR 6/12/18 mg inhaled, sum n=8, 2 h after last dose, baseline 36): 12
BPRS Emotional Withdrawal score (TRD, IDR 6/12/18 mg inhaled, sum n=8, 3 h after last dose, baseline 13): 8
BPRS Blunted Affect score (TRD, IDR 6/12/18 mg inhaled, sum n=8, 3 h after last dose, baseline 15): 11
BPRS Tension score (TRD, IDR 6/12/18 mg inhaled, sum n=8, 3 h after last dose, baseline 16): 11
BPRS Guilt Feelings score (TRD, IDR 6/12/18 mg inhaled, sum n=8, 3 h after last dose, baseline 34): 14
BPRS Anxiety percentage improvement [3]: 49%
BPRS Anxiety score [3]: 19
MADRS Suicidal Thoughts score (TRD, IDR 6/12/18 mg inhaled, sum n=8, day 1, baseline 11): 1
BPRS Emotional Withdrawal score (TRD, IDR 6/12/18 mg inhaled, sum n=8, day 1, baseline 13): 8
BPRS Blunted Affect score (TRD, IDR 6/12/18 mg inhaled, sum n=8, day 1, baseline 15): 8
BPRS Tension score (TRD, IDR 6/12/18 mg inhaled, sum n=8, day 1, baseline 16): 11
MADRS Reduced Sleep percentage improvement [4]: 52%
MADRS Reduced Sleep score [4]: 12
MADRS Inner Tension percentage improvement [5]: 77%
MADRS Inner Tension score [5]: 6
MADRS Lassitude score (TRD, IDR 6/12/18 mg inhaled, sum n=8, day 1, baseline 27): 5
MADRS Pessimistic Thoughts score (TRD, IDR 6/12/18 mg inhaled, sum n=8, day 1, baseline 28): 4
MADRS Concentration Difficulties score (TRD, IDR 6/12/18 mg inhaled, sum n=8, day 1, baseline 30): 1
BPRS Guilt Feelings score (TRD, IDR 6/12/18 mg inhaled, sum n=8, day 1, baseline 34): 11
MADRS Inability to Feel score (TRD, IDR 6/12/18 mg inhaled, sum n=8, day 1, baseline 36): 2
BPRS Anxiety percentage improvement [6]: 57%
BPRS Anxiety score [6]: 16
MADRS Suicidal Thoughts score (TRD, IDR 6/12/18 mg inhaled, sum n=8, day 7, baseline 11): 3
BPRS Emotional Withdrawal score (TRD, IDR 6/12/18 mg inhaled, sum n=8, day 7, baseline 13): 8
BPRS Blunted Affect score (TRD, IDR 6/12/18 mg inhaled, sum n=8, day 7, baseline 15): 8
BPRS Tension score (TRD, IDR 6/12/18 mg inhaled, sum n=8, day 7, baseline 16): 10
MADRS Reduced Sleep percentage improvement [7]: 64%
MADRS Reduced Sleep score [7]: 9
MADRS Inner Tension percentage improvement [8]: 54%
MADRS Inner Tension score [8]: 12
MADRS Lassitude score (TRD, IDR 6/12/18 mg inhaled, sum n=8, day 7, baseline 27): 3
MADRS Pessimistic Thoughts score (TRD, IDR 6/12/18 mg inhaled, sum n=8, day 7, baseline 28): 3
MADRS Concentration Difficulties percentage improvement [9]: 70.00%
MADRS Concentration Difficulties score [9]: 9
BPRS Guilt Feelings score (TRD, IDR 6/12/18 mg inhaled, sum n=8, day 7, baseline 34): 10
MADRS Inability to Feel score (TRD, IDR 6/12/18 mg inhaled, sum n=8, day 7, baseline 36): 6
BPRS Anxiety percentage improvement [10]: 54%
BPRS Anxiety score [10]: 17
MADRS Suicidal Thoughts score (TRD, single 12 mg inhaled, sum n=4, 2 h after dose, baseline 8): 3
MADRS Inner Tension percentage improvement [11]: 85%
MADRS Inner Tension score [11]: 2
MADRS Concentration Difficulties score [12]: 7
MADRS Inability to Feel score [12]: 9
MADRS Lassitude score [12]: 10
MADRS Pessimistic Thoughts percentage improvement [12]: 50.00%
MADRS Pessimistic Thoughts score [12]: 8
BPRS Blunted Affect score (TRD, single 12 mg inhaled, sum n=4, 3 h after dose, baseline 11): 8
BPRS Emotional Withdrawal score (TRD, single 12 mg inhaled, sum n=4, 3 h after dose, baseline 13): 11
BPRS Tension score (TRD, single 12 mg inhaled, sum n=4, 3 h after dose, baseline 14): 9
BPRS Guilt Feelings percentage improvement [13]: 50.00%
BPRS Guilt Feelings score [13]: 9
BPRS Anxiety percentage improvement [14]: 56%
BPRS Anxiety score [14]: 11
MADRS Suicidal Thoughts score (TRD, single 12 mg inhaled, sum n=4, day 1, baseline 8): 5
BPRS Blunted Affect score (TRD, single 12 mg inhaled, sum n=4, day 1, baseline 11): 6
MADRS Reduced Sleep percentage improvement [15]: 17%
MADRS Reduced Sleep score [15]: 10
BPRS Emotional Withdrawal score [16]: 8
MADRS Inner Tension percentage improvement [16]: 77%
MADRS Inner Tension score [16]: 3
BPRS Tension score (TRD, single 12 mg inhaled, sum n=4, day 1, baseline 14): 6
MADRS Concentration Difficulties score [17]: 2
MADRS Inability to Feel score [17]: 1
MADRS Lassitude percentage improvement [17]: 100.00%
MADRS Lassitude score [17]: 0
MADRS Pessimistic Thoughts score [17]: 7
BPRS Guilt Feelings score (TRD, single 12 mg inhaled, sum n=4, day 1, baseline 18): 5
BPRS Anxiety percentage improvement [18]: 76%
BPRS Anxiety score [18]: 6
MADRS Suicidal Thoughts score (TRD, single 12 mg inhaled, sum n=4, day 7, baseline 8): 7
BPRS Blunted Affect score (TRD, single 12 mg inhaled, sum n=4, day 7, baseline 11): 5
MADRS Reduced Sleep percentage improvement [19]: 50%
MADRS Reduced Sleep score [19]: 6
BPRS Emotional Withdrawal score [20]: 6
MADRS Inner Tension percentage improvement [20]: 62%
MADRS Inner Tension score [20]: 5
BPRS Tension score (TRD, single 12 mg inhaled, sum n=4, day 7, baseline 14): 6
MADRS Concentration Difficulties score [21]: 3
MADRS Inability to Feel score [21]: 1
MADRS Lassitude score [21]: 3
MADRS Pessimistic Thoughts percentage improvement [21]: 50.00%
MADRS Pessimistic Thoughts score [21]: 8
BPRS Guilt Feelings score (TRD, single 12 mg inhaled, sum n=4, day 7, baseline 18): 5
BPRS Anxiety percentage improvement [22]: 76%
BPRS Anxiety score [22]: 6
